Experimental data reported in PMC6123691, “Structural basis for promotion of duodenal iron absorption by enteric ferric reductase with ascorbate” (Communications Biology, 2018).

Assays:
[1] = molecular target: T1, duodenal cytochrome b (Dcytb) (Homo sapiens, UniProt Q53TN4); experiment: X-ray crystal structure ([…] Å, soaked with […] sodium ascorbate and ZnSO4); stopped-flow heme reduction; assay type: binding
T1 construct: gene CYBRD1; full-length Dcytb (residues 1–286); atomic model residues 6–230
T1 sequence (Q53TN4 1-286): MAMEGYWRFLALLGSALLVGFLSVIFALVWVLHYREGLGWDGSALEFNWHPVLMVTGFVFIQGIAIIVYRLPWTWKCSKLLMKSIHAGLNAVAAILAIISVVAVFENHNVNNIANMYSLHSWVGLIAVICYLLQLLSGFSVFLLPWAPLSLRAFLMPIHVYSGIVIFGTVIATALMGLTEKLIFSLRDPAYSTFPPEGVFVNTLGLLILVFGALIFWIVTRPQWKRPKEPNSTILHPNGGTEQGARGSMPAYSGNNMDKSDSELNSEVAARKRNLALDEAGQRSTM

[2] = molecular target: the molecule itself; experiment: crystal structure; lipidic cubic phase (monoolein) crystals, space group C2; substrate-free form at 2.6 Å and Zn2+/ascorbate-soaked form at 2.8 Å; the dimer is formed by crystallographic twofold symmetry

Molecule: O=C1O[C@H]([C@@H](O)CO)C(O)=C1O [Asc, ascorbate]
- X-ray crystal structure (2.8 Å, soaked with 1 M sodium ascorbate and ZnSO4); sto [1]: The electron density from one ascorbate molecule was observed on the cytoplasmic surface of Dcytb in proximity to the heme

B1: human duodenal cytochrome b (Dcytb) (enzyme, UniProt Q53TN4 1-286, looked up)
chain: T1 sequence (Q53TN4 1-286)
notes: human duodenal cytochrome b (Dcytb), member of the cytochrome b561 family, full-length, residues 1-286; codon-optimized gene; the atomic model includes only residues 6-230; A thrombin cleavage site stood between the protein and the C-terminal hexa-His tag (pET-21b(+)); after cleavage some residues of the site may remain at the C-terminus; Integral membrane protein, solubilised in DDM and …
- stoichiometry N [2]: 2
